Data as given in US20240018207A1, “INTERFERON TAU FC-FUSION PROTEINS AND METHODS FOR TREATING CORONAVIRUS INFECTIONS” (Southlake Pharmaceuticals, Inc., priority 2020, published 2024).

Experiments:
hCoV-229E = hCoV-229E CPE assay in MRC5 cells; assay type: cell-based
Experimental: The method of this CPE assay is as follows: In 96-well plates, MRC5 cells were seeded at an appropriate density and cultured at 37° C. and 5% CO2 overnight. […] Then medium in each well was replenished with medium containing serially diluted samples and virus. […] Cytotoxicity of the compounds was assessed under the same conditions, but without virus infection, in parallel. Cell viability was measured by CellTiter Glo following the manufacturer's manual. IC50 and CC50 values were calculated with GraphPad Prism software.

[1] = test system: SARS CoV-2 (USA_WA1/2020); assay: microbe, parasite or virus in culture; assay type: cell-based; settings: Severe acute respiratory syndrome coronavirus 2, Vero C1008; SARS-CoV-2 CPE assay, reference compounds
in vitro = settings: human

## CCC(CC)COC(=O)[C@H](C)N[P@](=O)(OC[C@H]1O[C@@](C#N)(c2ccc3c(N)ncnn23)[C@H](O)[C@@H]1O)Oc1ccccc1 [Remdesivir]
hCoV-229E; HCoV-229E CPE assay
  Selectivity Index (CC50/IC50) (Based upon nM): 1508.76
hCoV-229E; Human coronavirus 229E, MRC5, 72 h, read-out: Antiviral IC50
  IC50: 0.0177 µM
[1]
  IC50: 3.9 µM
In vitro
  CC50: 26.7 µM
